Experimental data published in the NIST ThermoML archive (doi:10.1016/j.jct.2010.11.007).

Experiment: refractive index (Na D-line) (dimensionless); xn = mol fraction of the nth substance listed
Details: 101 kPa, Liquid, Standard Abbe refractometry

C=CC(C)(O)CCC=C(C)C (stereo not drawn) [3,7-dimethyl-1,6-octadien-3-ol] + CCCO
refractive index
Details	283.15 K	298.15 K	313.15 K	328.15 K
x1 = 0.0533	1.39881	1.39255	1.38616	1.3796
x1 = 0.1051	1.40707	1.40075	1.39427	1.38756
x1 = 0.2014	1.41983	1.41337	1.40675	1.39986
x1 = 0.3032	1.43049	–	–	–
x1 = 0.3049	–	1.42409	1.41728	1.41023
x1 = 0.3869	1.43761	1.43088	1.42395	1.41687
x1 = 0.4929	–	–	–	1.42395
x1 = 0.4951	1.44504	1.4382	1.43113	–
x1 = 0.5917	1.45054	1.44367	1.43657	1.42935
x1 = 0.6895	1.45535	1.4484	1.44114	1.4339
x1 = 0.767	–	–	–	1.4371
x1 = 0.7765	1.45896	1.45193	1.44473	–
x1 = 0.8735	1.46254	1.45549	1.44824	1.44085
x1 = 0.9296	1.46441	1.4573	1.44997	1.44249
x1 = 1	1.4666	1.45946	1.45215	1.44473
